Four compounds from ChEMBL document CHEMBL5113381, “Large-Scale Screening of Antifungal Peptides Based on Quantitative Structure-Activity Relationship” (2022) can be followed below.

Holding throughout (type): functional
The subject of experiment [1] is Candida albicans. The experiment in a line: Antifungal activity against Candida albicans SC5314 measured after 24 to 48 hrs by CLSI method. The following applies: time 24-48 hrs.
Experiment [2] relates to Cryptococcus neoformans. The experiment in a line: Antifungal activity against Cryptococcus neoformans H99 measured after 24 to 48 hrs by CLSI method. The following applies: time 24-48 hrs.
The subject of experiment [3] is Candida parapsilosis. The experiment in a line: Antifungal activity against Candida parapsilosis ATCC 22019 measured after 24 to 48 hrs by CLSI method. The following applies: Lodderomyces parapsilosis, time 24-48 hrs.
The test system of experiment [4] is Pichia kudriavzevii. Briefly: Antifungal activity against Candida krusei IFM56881 measured after 24 to 48 hrs by CLSI method. The note with it: time 24-48 hrs.

Converted amounts (≈) assume the structure as drawn. Peptide text beside a SMILES is read from it.

For the compound `CC[C@H](C)[C@H](NC(=O)[C@H](C)NC(=O)[C@H](CS)NC(=O)[C@H](CO)NC(=O)[C@@H](NC(=O)[C@H](Cc1ccccc1)NC(=O)[C@@H](N)Cc1ccc(O)cc1)[C@@H](C)CC)C(=O)N[C@@H](Cc1cnc[nH]1)C(=O)N[C@@H](Cc1ccccc1)C(=O)N[C@@H](CCCCN)C(=O)N[C@H](C(=O)N[C@@H](CC(C)C)C(=O)N[C@@H](CCCCN)C(=O)N[C@H](C(=O)N[C@@H](CCCNC(=N)N)C(=O)N[C@@H](CO)C(=O)N[C@@H](C)C(=O)N[C@@H](C)C(=O)N[C@@H](CCCCN)C(=O)N[C@@H](CCCNC(=N)N)C(=O)N[C@@H](CCCNC(=N)N)C(=O)N[C@@H](CCC(=O)O)C(=O)N[C@@H](Cc1cnc[nH]1)C(=O)N[C@H](C(=O)N[C@@H](CCCCN)C(=O)N[C@@H](CC(C)C)C(=O)N[C@@H](CCCNC(=N)N)C(=O)O)[C@@H](C)O)[C@@H](C)CC)[C@@H](C)CC` (H-YFISCAIHFKILKIRSAAKRREHTKLR-OH), the MIC (in general, the lowest concentration that inhibits growth of the organism) stood at 77.9 µM (≈ 256 µg/mL) in experiment [1], 38.9 µM (≈ 128 µg/mL) in experiment [2], 77.9 µM (≈ 256 µg/mL) in experiment [3] and 19.5 µM (≈ 64 µg/mL) in experiment [4].
For `CC(C)C[C@H](NC(=O)[C@H](CCC(=O)O)NC(=O)[C@H](CCCCN)NC(=O)[C@H](CC(C)C)NC(=O)[C@@H](NC(=O)[C@@H]1CCCN1)C(C)C)C(=O)N[C@@H](CCCCN)C(=O)N[C@@H](CO)C(=O)N[C@H](C(=O)N[C@@H](CCC(N)=O)C(=O)N[C@@H](CCCCN)C(=O)N[C@H](C(=O)N[C@@H](CCCCN)C(=O)N[C@@H](CO)C(=O)NCC(=O)N[C@@H](CC(=O)O)C(=O)N[C@H](C(=O)N[C@@H](CC(C)C)C(=O)N[C@@H](Cc1ccc(O)cc1)C(=O)O)[C@@H](C)O)[C@@H](C)O)C(C)C` (H-PVLKELKSVQKTKSGDTLY-OH), the minimal inhibitory concentration (MIC) in experiment [1], in experiment [2], in experiment [3] and in experiment [4] was above 120 µM each time.
Turning to `CSCC[C@H](NC(=O)[C@H](CCCNC(=N)N)NC(=O)[C@H](CCCCN)NC(=O)[C@H](CCCCN)NC(=O)[C@H](CCCCN)NC(=O)[C@H](Cc1c[nH]c2ccccc12)NC(=O)[C@H](CCCCN)NC(=O)[C@@H]1CCCN1C(=O)[C@H](CCCNC(=N)N)NC(=O)[C@@H](N)CCSC)C(=O)N[C@@H](CCCNC(=N)N)C(=O)N[C@@H](CCCNC(=N)N)C(=O)N[C@@H](CC(C)C)C(=O)N[C@@H](CCCCN)C(=O)N[C@@H](CCCNC(=N)N)C(=O)N[C@@H](CCCCN)C(=O)N[C@@H](CCCNC(=N)N)C(=O)N[C@@H](CCCCN)C(=O)N[C@@H](CCC(N)=O)C(=O)N[C@@H](CCCNC(=N)N)C(=O)N[C@@H](CCCNC(=N)N)C(=O)N[C@@H](C)C(=O)N[C@@H](CCCNC(=N)N)C(=O)N[C@@H](Cc1ccc(O)cc1)C(=O)N[C@@H](CCCCN)C(=O)O`, the MIC is above 73.8 µM in experiment [1], 2.31 µM (≈ 8.02 µg/mL) in experiment [2], 18.4 µM (≈ 64 µg/mL) in experiment [3] and above 73.8 µM in experiment [4].
As for `CC[C@H](C)[C@H](NC(=O)[C@H](C)NC(=O)[C@H](CCCCN)NC(=O)[C@H](CCCNC(=N)N)NC(=O)[C@@H](NC(=O)[C@H](CCCNC(=N)N)NC(=O)[C@H](CCCNC(=N)N)NC(=O)CNC(=O)[C@H](Cc1ccc(O)cc1)NC(=O)[C@H](CCCNC(=N)N)NC(=O)[C@H](C)NC(=O)CNC(=O)[C@H](Cc1ccccc1)NC(=O)[C@H](CCCNC(=N)N)NC(=O)CNC(=O)[C@H](C)NC(=O)[C@H](CO)NC(=O)[C@H](CCCCN)NC(=O)[C@@H](NC(=O)[C@H](CCCCN)NC(=O)[C@@H](NC(=O)CNC(=O)[C@H](CCCCN)NC(=O)[C@H](CCCCN)NC(=O)[C@H](CCCNC(=N)N)NC(=O)[C@H](CCCCN)NC(=O)[C@H](CCC(N)=O)NC(=O)[C@H](CCCCN)NC(=O)[C@H](CCCCN)NC(=O)[C@@H](NC(=O)[C@@H](N)CCSC)[C@@H](C)O)[C@@H](C)CC)[C@@H](C)O)[C@@H](C)CC)C(=O)O` (H-MTKKQKRKKGIKTKSAGRFGARYGRRIRKAI-OH), the MIC in experiment [1] is above 70.7 µM; in experiment [2] it was 8.84 µM (≈ 32 µg/mL); in experiment [3], 4.42 µM (≈ 16 µg/mL); in experiment [4] it was above 70.7 µM.
